Data taken from patent publication US10428134B2, “Immunoglobulins and uses thereof” (JANSSEN PHARMACEUTICA NV, priority 2016, dated 2019).

Experiments:
CALCR = target: T1, CALCR (Homo sapiens, UniProt P30988); test: class B GPCR panel cAMP assay, CALCR; type: cell-based
T1 construct: host or cells: cells expressing CALCR (unnamed vendor)
T1 sequence (P30988 25-474): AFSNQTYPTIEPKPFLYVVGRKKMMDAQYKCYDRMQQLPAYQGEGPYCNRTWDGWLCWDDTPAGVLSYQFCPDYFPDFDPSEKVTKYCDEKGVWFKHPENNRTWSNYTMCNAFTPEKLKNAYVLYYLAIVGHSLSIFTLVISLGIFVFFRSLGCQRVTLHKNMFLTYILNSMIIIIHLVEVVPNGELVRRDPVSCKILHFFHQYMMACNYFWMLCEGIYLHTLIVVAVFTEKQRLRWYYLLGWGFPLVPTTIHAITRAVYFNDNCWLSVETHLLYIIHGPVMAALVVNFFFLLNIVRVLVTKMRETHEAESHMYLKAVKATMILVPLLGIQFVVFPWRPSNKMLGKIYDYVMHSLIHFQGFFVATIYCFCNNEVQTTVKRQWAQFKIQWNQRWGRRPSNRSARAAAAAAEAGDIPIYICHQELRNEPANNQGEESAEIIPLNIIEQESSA
Description: (§1) The assays were performed according to the vendor's standard operating procedures with a positive control included for each receptor tested.

PTHR1 = target: T2, PTHR1 (Homo sapiens, UniProt Q03431); test: class B GPCR panel cAMP assay, PTHR1; type: cell-based; settings: read-out: Max response
T2 construct: host or cells: cells expressing PTHR1 (unnamed vendor)
T2 sequence (Q03431 27-593): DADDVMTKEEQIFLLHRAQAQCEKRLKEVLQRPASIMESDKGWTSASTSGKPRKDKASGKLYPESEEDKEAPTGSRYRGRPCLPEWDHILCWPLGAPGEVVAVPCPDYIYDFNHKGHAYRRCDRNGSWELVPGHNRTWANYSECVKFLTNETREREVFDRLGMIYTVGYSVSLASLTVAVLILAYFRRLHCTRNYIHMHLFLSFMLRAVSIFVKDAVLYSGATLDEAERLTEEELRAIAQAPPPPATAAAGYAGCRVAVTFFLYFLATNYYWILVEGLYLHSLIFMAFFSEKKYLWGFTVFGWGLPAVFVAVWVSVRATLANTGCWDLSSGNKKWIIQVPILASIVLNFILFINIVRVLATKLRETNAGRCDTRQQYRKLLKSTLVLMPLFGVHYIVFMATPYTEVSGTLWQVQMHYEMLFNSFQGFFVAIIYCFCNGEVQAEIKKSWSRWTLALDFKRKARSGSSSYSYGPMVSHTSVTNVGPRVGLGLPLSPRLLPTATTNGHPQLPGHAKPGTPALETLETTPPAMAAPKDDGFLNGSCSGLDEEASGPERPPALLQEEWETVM
Description: as §1

SMILES	Curve Bottom (CALCR; CALCR cAMP assay)	Curve Top (CALCR; CALCR cAMP assay)	Hill (CALCR; CALCR cAMP assay)	Emax (CALCR; read-out: Max response)	Emax (PTHR1)
CC(C)C[C@H](NC(=O)[C@H](CCCCN)NC(=O)CNC(=O)[C@H](CC(C)C)NC(=O)[C@@H](NC(=O)[C@@H]1CSSC[C@H](N)C(=O)N[C@@H](CO)C(=O)N[C@@H](CC(N)=O)C(=O)N[C@@H](CC(C)C)C(=O)N[C@@H](CO)C(=O)N[C@@H]([C@@H](C)O)C(=O)N1)C(C)C)C(=O)N[C@@H](CO)C(=O)N[C@@H](CCC(N)=O)C(=O)N[C@@H](CCC(=O)O)C(=O)N[C@@H](CC(C)C)C(=O)N[C@@H](Cc1c[nH]cn1)C(=O)N[C@@H](CCCCN)C(=O)N[C@@H](CC(C)C)C(=O)N[C@@H](CCC(N)=O)C(=O)N[C@H](C(=O)N[C@@H](Cc1ccc(O)cc1)C(=O)N1CCC[C@H]1C(=O)N[C@@H](CCCNC(=N)N)C(=O)N[C@H](C(=O)N[C@@H](CC(N)=O)C(=O)N[C@H](C(=O)NCC(=O)N[C@@H](CO)C(=O)NCC(=O)N[C@H](C(=O)N1CCC[C@H]1C(N)=O)[C@@H](C)O)[C@@H](C)O)[C@@H](C)O)[C@@H](C)O [Calcitonin]	−6.2187	105	1.5254	101%	
CC[C@H](C)[C@H](NC(=O)[C@H](CCC(=O)O)NC(=O)[C@H](CO)NC(=O)[C@@H](NC(=O)[C@@H](N)CO)C(C)C)C(=O)N[C@@H](CCC(N)=O)C(=O)N[C@@H](CC(C)C)C(=O)N[C@@H](CCSC)C(=O)N[C@@H](Cc1cnc[nH]1)C(=O)N[C@@H](CC(N)=O)C(=O)N[C@@H](CC(C)C)C(=O)NCC(=O)N[C@@H](CCCCN)C(=O)N[C@@H](Cc1cnc[nH]1)C(=O)N[C@@H](CC(C)C)C(=O)N[C@@H](CC(N)=O)C(=O)N[C@@H](CO)C(=O)N[C@@H](CCSC)C(=O)N[C@@H](CCC(=O)O)C(=O)N[C@@H](CCCNC(=N)N)C(=O)N[C@H](C(=O)N[C@@H](CCC(=O)O)C(=O)N[C@@H](Cc1c[nH]c2ccccc12)C(=O)N[C@@H](CC(C)C)C(=O)N[C@@H](CCCNC(=N)N)C(=O)N[C@@H](CCCCN)C(=O)N[C@@H](CCCCN)C(=O)N[C@@H](CC(C)C)C(=O)N[C@@H](CCC(N)=O)C(=O)N[C@@H](CC(=O)O)C(=O)N[C@H](C(=O)N[C@@H](Cc1cnc[nH]1)C(=O)N[C@@H](CC(N)=O)C(=O)N[C@@H](Cc1ccccc1)C(=O)O)C(C)C)C(C)C [PTH(1-34)]					93.6%
